{"source": "paper PMC11079024", "about": "“Identification of a family of species-selective complex I inhibitors as potential anthelmintics” (Nature Communications, 2024)", "key": {"[1]": {"tested_on": "L1 wild-type C. elegans"}, "[2]": {"target": "C. elegans (N2) complex I (NADH:ubiquinone oxidoreductase) (Caenorhabditis elegans, UniProt P24887+Q93873+Q94360)", "sequence (Q94360 17-199)": "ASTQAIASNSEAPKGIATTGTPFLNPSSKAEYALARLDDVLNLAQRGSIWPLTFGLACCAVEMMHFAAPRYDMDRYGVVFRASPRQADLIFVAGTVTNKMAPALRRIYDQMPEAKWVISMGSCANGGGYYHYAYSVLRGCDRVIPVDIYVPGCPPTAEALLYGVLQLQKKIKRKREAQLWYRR", "sequence (P24887 whole entry)": "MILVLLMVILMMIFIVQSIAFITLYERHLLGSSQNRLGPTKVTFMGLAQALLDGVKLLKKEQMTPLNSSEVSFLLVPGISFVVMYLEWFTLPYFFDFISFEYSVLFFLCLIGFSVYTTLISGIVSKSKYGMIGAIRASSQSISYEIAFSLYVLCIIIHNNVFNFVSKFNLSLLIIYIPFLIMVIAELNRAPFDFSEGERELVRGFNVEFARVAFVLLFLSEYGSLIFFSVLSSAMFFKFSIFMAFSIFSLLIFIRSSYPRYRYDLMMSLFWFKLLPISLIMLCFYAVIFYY", "sequence (Q93873 31-482)": "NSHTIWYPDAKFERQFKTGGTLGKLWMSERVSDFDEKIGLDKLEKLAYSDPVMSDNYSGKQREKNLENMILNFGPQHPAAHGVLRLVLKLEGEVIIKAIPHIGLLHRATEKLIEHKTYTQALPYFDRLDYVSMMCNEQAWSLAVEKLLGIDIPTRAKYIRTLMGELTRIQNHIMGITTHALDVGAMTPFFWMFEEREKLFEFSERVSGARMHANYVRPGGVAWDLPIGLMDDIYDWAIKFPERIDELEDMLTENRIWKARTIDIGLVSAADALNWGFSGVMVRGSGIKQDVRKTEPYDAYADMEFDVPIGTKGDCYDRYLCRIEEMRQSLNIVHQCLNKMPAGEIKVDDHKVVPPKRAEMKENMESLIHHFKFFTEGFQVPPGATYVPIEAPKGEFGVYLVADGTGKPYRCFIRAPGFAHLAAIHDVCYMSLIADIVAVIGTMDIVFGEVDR", "test": "biochemical", "format": "biochemical", "settings": "for Log IC50 C. elegans complex I: log10 of IC50 in µM, C. elegans mitochondria", "in_short": "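Mitochondria from liquid-cultured adults were freeze-thawed thrice before the 15-min DCIP-coupled NADH oxidation read.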"}, "[3]": {"tested_on": "L1 wild-type C. elegans", "test": "microbe, parasite or virus in culture", "settings": "Caenorhabditis elegans, read-out: C. elegans KCN Survival Assay LC50, estimated from fitted dose-response curves; mean of at least two biological replicates"}, "[4]": {"settings": "50 μM, KCN survival assay, hit = relative motility below 0.25"}, "[5]": {"settings": "in vitro complex I dose response on C. elegans mitochondria, average of at least two biological replicates, fit in R (DRC), read-out: IC50 C. elegans complex I"}, "[6]": {"settings": "wild-type (N2) mitochondria, read-out: C. elegans Complex I IC50"}, "[7]": {"settings": "wild-type C. elegans mitochondria, estimated from fitted dose-response curves, read-out: C. elegans Complex I IC50"}}, "note": "Where two headings read alike, the source gives them in different places.", "data": [{"smiles": "FC(F)(F)c1cccc(OCCCCn2cnc3ccccc32)c1", "note": "[Compound 7925004]", "values": [{"measurement": "Screen \"Hit\"", "setting": "[1]; [4]", "result": "Y (hits were identified as compounds that reduced relative motility below 0.25 (75% reduction))"}, {"measurement": "C. elegans KCN Survival", "setting": "[1]; Dose 0.2 µM, mean of at least three biological replicates", "result": 1.053}, {"measurement": "C. elegans KCN Survival", "setting": "[1]; Dose 0.39 µM", "result": 1.068}, {"measurement": "C. elegans KCN Survival", "setting": "[1]; Dose 1.56 µM", "result": 1.004}, {"measurement": "C. elegans KCN Survival", "setting": "[1]; Dose 3.13 µM", "result": 1.026}, {"measurement": "C. elegans KCN Survival", "setting": "[1]; Dose 6.25 µM", "result": 0.948}, {"measurement": "C. elegans KCN Survival", "setting": "[1]; Dose 12.5 µM", "result": 0.632}, {"measurement": "C. elegans KCN Survival", "setting": "[1]; Dose 25 µM", "result": 0.094}, {"measurement": "C. elegans KCN Survival", "setting": "[1]; Dose 50 µM", "result": 0.092}, {"measurement": "C. elegans KCN Survival", "setting": "[1]; Dose 100 µM", "result": 0.126}, {"measurement": "activity at 0.0001 µM", "setting": "[2]; Dose 0.0001 µM, read-out: C. elegans mitochondrial complex I activity", "result": 115, "unit": "%"}, {"measurement": "activity at 0.0005 µM", "setting": "[2]; Dose 0.0005 µM, read-out: C. elegans mitochondrial complex I activity", "result": 105, "unit": "%"}, {"measurement": "activity at 0.001 µM", "setting": "[2]; Dose 0.001 µM, read-out: C. elegans mitochondrial complex I activity", "result": 110, "unit": "%"}, {"measurement": "activity at 0.0025 µM", "setting": "[2]; Dose 0.0025 µM, read-out: C. elegans mitochondrial complex I activity", "result": 110, "unit": "%"}, {"measurement": "activity at 0.005 µM", "setting": "[2]; Dose 0.005 µM, read-out: C. elegans mitochondrial complex I activity", "result": 105, "unit": "%"}, {"measurement": "activity at 0.013 µM", "setting": "[2]; Dose 0.013 µM, read-out: C. elegans mitochondrial complex I activity", "result": 103, "unit": "%"}, {"measurement": "activity at 0.025 µM", "setting": "[2]; Dose 0.025 µM, read-out: C. elegans mitochondrial complex I activity", "result": 105, "unit": "%"}, {"measurement": "activity at 0.063 µM", "setting": "[2]; Dose 0.063 µM, read-out: C. elegans mitochondrial complex I activity", "result": 104, "unit": "%"}, {"measurement": "activity at 0.125 µM", "setting": "[2]; Dose 0.125 µM, read-out: C. elegans mitochondrial complex I activity", "result": 98, "unit": "%"}, {"measurement": "activity at 0.313 µM", "setting": "[2]; Dose 0.313 µM, read-out: C. elegans mitochondrial complex I activity", "result": 81.9, "unit": "%"}, {"measurement": "activity at 0.625 µM", "setting": "[2]; Dose 0.625 µM, read-out: C. elegans mitochondrial complex I activity", "result": 91.2, "unit": "%"}, {"measurement": "activity at 1.5 µM", "setting": "[2]; Dose 1.5 µM, read-out: C. elegans mitochondrial complex I activity", "result": 67.6, "unit": "%"}, {"measurement": "activity at 3 µM", "setting": "[2]; Dose 3 µM, read-out: C. elegans mitochondrial complex I activity", "result": 48.6, "unit": "%"}, {"measurement": "activity at 15 µM", "setting": "[2]; Dose 15 µM, read-out: C. elegans mitochondrial complex I activity", "result": 22.1, "unit": "%"}, {"measurement": "activity at 37.5 µM", "setting": "[2]; Dose 37.5 µM, read-out: C. elegans mitochondrial complex I activity", "result": 13.1, "unit": "%"}, {"measurement": "activity at 75 µM", "setting": "[2]; Dose 75 µM, read-out: C. elegans mitochondrial complex I activity", "result": 1.4, "unit": "%"}, {"measurement": "IC50", "setting": "[2]; [5]", "result": 2.06, "unit": "µM"}, {"measurement": "Log IC50 C. elegans complex I", "setting": "[2]", "result": 0.31, "unit": "µM"}, {"measurement": "IC50", "setting": "[2]; [6]", "result": 2.06, "unit": "µM"}, {"measurement": "IC50", "setting": "[2]; [7]", "result": 2.06, "unit": "µM"}, {"measurement": "LC50", "setting": "[3]", "result": 13.9, "unit": "µM"}]}, {"smiles": "Brc1ccc(Cn2cnc3ccccc32)cc1", "note": "[Compound 5542661]", "values": [{"measurement": "Screen \"Hit\"", "setting": "[1]; [4]", "result": "Y (hits were identified as compounds that reduced relative motility below 0.25 (75% reduction))"}, {"measurement": "IC50", "setting": "[2]; [5]", "result": 0.53, "unit": "µM"}, {"measurement": "Log IC50 C. elegans complex I", "setting": "[2]", "result": -0.28, "unit": "µM"}, {"measurement": "IC50", "setting": "[2]; [6]", "result": 0.53, "unit": "µM"}, {"measurement": "IC50", "setting": "[2]; [7]", "result": 0.53, "unit": "µM"}, {"measurement": "LC50", "setting": "[3]", "result": 7.75, "unit": "µM"}]}, {"smiles": "Cc1nc2ccccc2n1Cc1ccc(C(C)C)cc1", "note": "[Compound 7353551]", "values": [{"measurement": "Screen \"Hit\"", "setting": "[1]; 50 μM compound, hit = relative motility below 0.25 3 hours after removal of KCN", "result": "Y (hits were identified as compounds that reduced relative motility below 0.25 (75% reduction))"}, {"measurement": "IC50", "setting": "[2]; [5]", "result": 0.43, "unit": "µM"}, {"measurement": "Log IC50 C. elegans complex I", "setting": "[2]", "result": -0.37, "unit": "µM"}, {"measurement": "IC50", "setting": "[2]; [6]", "result": 0.43, "unit": "µM"}, {"measurement": "IC50", "setting": "[2]; [7]", "result": 0.43, "unit": "µM"}, {"measurement": "LC50", "setting": "[3]", "result": 7, "unit": "µM"}]}]}
